Assay results published in patent US4000293A, “Method of inhibiting bacterial growth with certain selected 3-chloro-2-oxazolidinones” (Interx Research Corporation, priority 1975, dated 1976).

Columns and labels:
[1] = stability in the neat state (% chlorine by iodometric titration), Table D; type: physicochemical
Protocol: In those instances, the data were acquired at ambient temperature (approximately 23° C.). The method used was similar to that described above in which the rate of disappearance of "positive" chlorine was followed iodometrically by titration of iodine liberated from added potassium iodide with standard sodium thiosulfate solution. Samples of the compounds were individually sealed in ampoules and stored in the dark at 23° C. or 40° C. and weighed amounts removed from time to time for analysis.
For each of the compounds analyzed as indicated above, percent chlorine was plotted as ordinate against time in days as abscissa on semi-logarithmic paper and the points connected by a smooth curve for each compound.

[2] = positive chlorine concentration before and after 14 day incubation of solutions at pH 7.0, 40° C., Table B; type: physicochemical; conditions: for Final Concn. of positive chlorine: after 14 day incubation at 40° C.; for Final Concn. of positive chlorine / Initial Concn. of positive chlorine: 0.1M phosphate pH 7.0; for Initial Concn. of positive chlorine: before incubation
Protocol: (§1) The germicidal kill times so-obtained at various concentrations of the compounds of the invention and of certain reference compounds are given in Table A below. The compounds are identified in each case by the Example number above where the compounds are described. Here and elsewhere in the specification that follows, concentrations are expressed in parts per million (ppm) of "positive" chlorine, which was determined in each instance by addition of excess aqueous potassium iodide to an acidified solution of the test compound and titration of the iodine liberated with standard sodium thiosulfate solution.
(§2) The stabilities and the time-dependent efficacies of the claimed and reference species were determined by comparing the contact germicidal times and the initial and final concentrations of positive chlorine in solutions of the test species in 0.1M sodium dihydrogen phosphate buffered to pH 7.0 before and after 14 day incubation of the solutions at 40° C. The results are given in Table B below, where the columns headed "Bc Time" refers to the bactericidal time in minutes.

[3] = system: Staphylococcus aureus ATCC 6538; experiment: contact germicidal (bactericidal) time before and after 14 day incubation of solutions at 40° C., Table B; type: cell-based; conditions: pH 7.0; for Bc Time, final: after 14 day incubation at 40° C.; for Bc Time, initial: before incubation, at initial ppm +Cl of the same line
Protocol: (§3) The compounds of the invention and certain reference compounds were tested in the germidical efficiency test, a modification of the standard serial dilution test, against Staphylococcus aureus ATCC 6538. In the germicidal efficiency test, instead of determining the minimum inhibitory concentration as in the serial dilution test procedure, the time required to effect complete sterilization of the micro-organism when exposed to a given concentration of the test substance is determined. This procedure affords a basis of comparison of the time dependent efficacies of the various test substances which gives a measure not only of the germidical efficacy of the test species but, since as will be seen germicidal efficiency of the N-chloro compounds generally tends to diminish with time, apparently owing to decomposition of, and therefore dilution of, the active species, the test procedure also provides an indication of the efficacy to be expected at varying time intervals after solution of the test species in the application medium. The test procedure is described as follows: A stock solution of known concentration of each compound to be tested was prepared in 0.1M sodium dihydrogen phosphate buffered to pH 7.0. To 5 ml. of the test solution was added 0.2 ml. of an overnight broth culture containing from 6×10^6 to 8×10^6 organisms/ml. of Staphylococcus aureus ATCC 6538 and 5 g. of gelysate peptone and 3 g. of beef extract per 1000 ml. of water. At time intervals of 0.5, 1, 2, 3, 4, 5, 6, 7, 8, 9, 10, 15 and 30 minutes, a loop of this suspension was subcultured into 5 ml. of sterile nutrient broth (5 g. of gelysate peptone and 3 g. of beef extract/1000 ml. of water), and the samples were incubated at 37° C. for 7 days with daily observation for evidence of bacterial growth. The time interval in which no bacterial growth was observed after the incubation period in a particular sample was recorded as the end point.
as §2

[4] = system: Staphylococcus aureus ATCC 6538; experiment: germicidal efficiency test (modified serial dilution; time to complete sterilization), Table A; type: cell-based; conditions: pH 7.0
Protocol: The compounds are thus useful as bactericidal agents.
as §3, §1

[5] = hydrolytic stability in 0.1M sodium dihydrogen phosphate pH 7.0 at 40° (first-order kinetics), Table C; type: physicochemical; conditions: hydrolysis, 0.1M phosphate pH 7.0, 40°; for half-life: 0.1m phosphate buffer; for Rate Constant k: first-order
Protocol: A further measure of the relative stabilities of the reference and claimed species was obtained by measuring the hydrolytic stability of the various species in 0.1M sodium dihydrogen phosphate buffered to pH 7.0 at 40°. For each species, the rate of change in the concentration of positive chlorine in the solution was measured by the volume of standard thiosulfate required to titrate a series of aliquots of a standard volume of the solution at various time intervals using potassium iodide/sodium thiosulfate as detailed above. The volumes of thiosulfate required to titrate each sample so obtained were interpreted as first-order kinetic processes. The hydrolytic stabilities of the reference and claimed species under the experimental conditions were characterized by the reaction rate constants and half-lives obtained from a linear regression analysis of the experimental data. The results obtained are given in Table C below and are also shown in FIG. 1 where the volumes in milliliters of standard thiosulfate required to titrate the positive chlorine in the various samples are plotted as ordinate against time in days as abscissa.

O=C1OCCN1Cl [Example 1A, 3-chloro-2-oxazolidinone]
% Cl, neat ([1]; 40° C., 0 Hrs.): 28.9% | % Cl, neat ([1]; 40° C., 2 Hrs.): 27.4% | % Cl, neat ([1]; 40° C., 18.5 Hrs.): 25.9% | % Cl, neat ([1]; 40° C., 24 Hrs.): 26.9% | % Cl, neat ([1]; 40° C., 54 Hrs.): 27.2% | % Cl, neat ([1]; 40° C., 72 Hrs.): 24.8% | % Cl, neat ([1]; 40° C., 80 Hrs.): 23.5% | % Cl, neat ([1]; 40° C., 98 Hrs.): 26.2% | % Cl, neat ([1]; 40° C., 144 Hrs.): 8.7% | % Cl, neat ([1]; 40° C., 168 Hrs.): 0.4% | Final Concn. of positive chlorine [2]: 30 ppm +Cl | Initial Concn. of positive chlorine [2]: 465 ppm +Cl | Bc Time, final [3]: > 30 min | Bc Time, initial [3]: 1 min | Bactericidal Time ([4]; 157 ppm +Cl): 7 min | Bactericidal Time ([4]; 281 ppm +Cl): 2 min | Bactericidal Time ([4]; 465 ppm +Cl): 1 min | half-life [5]: 45 h | Rate Constant k [5]: 0.0155 h⁻¹

CC1COC(=O)N1Cl (centres unmarked) [Example 1B, 3-Chloro-4-methyl-2-oxazolidinone]
% Cl, neat ([1]; 23° C., 0 Hrs.): 26.5% | % Cl, neat ([1]; 23° C., 3 Hrs.): 25.9% | % Cl, neat ([1]; 23° C., 5 Hrs.): 25.3% | % Cl, neat ([1]; 23° C., 6.5 Hrs.): 25.0% | % Cl, neat ([1]; 23° C., 9 Hrs.): 25.0% | % Cl, neat ([1]; 23° C., 10.5 Hrs.): 24.1% | % Cl, neat ([1]; 23° C., 21.5 Hrs.): 21.7% | % Cl, neat ([1]; 23° C., 24.5 Hrs.): 21.1% | % Cl, neat ([1]; 23° C., 29 Hrs.): 14.4% | % Cl, neat ([1]; 23° C., 30 Hrs.): 12.4% | % Cl, neat ([1]; 23° C., 32 Hrs.): 6.1% | % Cl, neat ([1]; 23° C., 35 Hrs.): 2.0% | % Cl, neat ([1]; 23° C., 45 Hrs.): 0% | Final Concn. of positive chlorine [2]: 14 ppm +Cl | Initial Concn. of positive chlorine [2]: 610 ppm +Cl | Bc Time, final [3]: > 30 min | Bc Time, initial [3]: 1 min | Bactericidal Time ([4]; 131 ppm +Cl): 7 min | Bactericidal Time ([4]; 303 ppm +Cl): 4 min | Bactericidal Time ([4]; 610 ppm +Cl): 1 min | half-life [5]: 10.9 h | Rate Constant k [5]: 0.0633 h⁻¹

CC1OC(=O)N(Cl)C1C (centres unmarked) [Example 1C, 3-Chloro-4,5-dimethyl-2-oxazolidinone]
% Cl, neat ([1]; 23° C., 0 Hrs.): 21.8% | % Cl, neat ([1]; 23° C., 3 Hrs.): 20.8% | % Cl, neat ([1]; 23° C., 5 Hrs.): 8.2% | % Cl, neat ([1]; 23° C., 7.5 Hrs.): 0.47% | % Cl, neat ([1]; 23° C., 24 Hrs.): 0.17% | Final Concn. of positive chlorine [2]: 51 ppm +Cl | Initial Concn. of positive chlorine [2]: 490 ppm +Cl | Bc Time, initial [3]: 4 min | Bactericidal Time ([4]; 117 ppm +Cl): 10 min | Bactericidal Time ([4]; 295 ppm +Cl): 5 min | Bactericidal Time ([4]; 490 ppm +Cl): 4 min | half-life [5]: 38.5 h | Rate Constant k [5]: 0.018 h⁻¹

CC1CN(Cl)C(=O)O1 (centres unmarked) [Example 1D, 3-Chloro-5-methyl-2-oxazolidinone]
Final Concn. of positive chlorine [2]: 34 ppm +Cl | Initial Concn. of positive chlorine [2]: 548 ppm +Cl | Bc Time, final [3]: > 30 min | Bc Time, initial [3]: 0.5 min | Bactericidal Time ([4]; 74 ppm +Cl): > 30 min | Bactericidal Time ([4]; 383 ppm +Cl): 2 min | Bactericidal Time ([4]; 548 ppm +Cl): 0.5 min

CCC1CN(Cl)C(=O)O1 (centres unmarked) [Example 1E, 3-Chloro-5-ethyl-2-oxazolidinone]
Final Concn. of positive chlorine [2]: 15 ppm +Cl | Initial Concn. of positive chlorine [2]: 535 ppm +Cl | Bc Time, final [3]: > 30 min | Bc Time, initial [3]: 1 min | Bactericidal Time ([4]; 96 ppm +Cl): 6 min | Bactericidal Time ([4]; 161 ppm +Cl): 2 min | Bactericidal Time ([4]; 372 ppm +Cl): 3 min | Bactericidal Time ([4]; 535 ppm +Cl): 1 min

CCC1(C)COC(=O)N1Cl (centres unmarked) [Example 1H, 3-Chloro-4-ethyl-4-methyl-2-oxazolidinone]
stability in the neat state (in words) [1]: surprising stability | % Cl, neat ([1]; 40° C., 0 Days): 21.7% | % Cl, neat ([1]; 40° C., 2 Days): 23.6% | % Cl, neat ([1]; 40° C., 5 Days): 21.1% | % Cl, neat ([1]; 40° C., 10 Days): 20.7% | % Cl, neat ([1]; 40° C., 14 Days): 21.0% | % Cl, neat ([1]; 40° C., 18 Days): 20.6% | % Cl, neat ([1]; 40° C., 25 Days): 18.2% | % Cl, neat ([1]; 40° C., 39 Days): 22.3% | % Cl, neat ([1]; 40° C., 53 Days): 20.2% | % Cl, neat ([1]; 40° C., 164 Days): 19.6% | decomposition over the test period (in words) ([2]; 14 days, 40° C., pH 7.0): decomposed only slightly over the test period | Final Concn. of positive chlorine [2]: 553 ppm +Cl | Initial Concn. of positive chlorine [2]: 555 ppm +Cl | Bc Time, final [3]: 3 min | bactericidal activity after the test period (in words) ([3]; after 14 days at 40° C.): retained the original level of bactericidal activity | Bc Time, initial [3]: 3 min
